Source: BindingDB's records for doi:10.1021/acs.jmedchem.9b01283 (Pharmaxis, 2019)

Molecular target: Diamine oxidase AOC1 (Homo sapiens)
Assay: Inhibition of recombinant human DAO using putrescine as substrate preincubated with enzyme for 30 mins followed by substrate addition and measured every 2.5 mins for 30 mins by Amplex-Red oxidation assay

IC50 [µM] | SMILES
> 10 | Cc1c(-c2cccc(S(=O)(=O)N(C)C)c2)c2cc(C(=O)O)ccc2n1CC(F)=CCN
3.98 | Cc1c(-c2cccc(S(=O)(=O)N(C)C)c2)c2ccccc2n1CC(F)=CCN
